Our source for the IC50 values is patent publication US12600717B2, “Tricyclic compounds as inhibitors of KRAS” (Incyte Corporation, priority 2021, dated 2026).

The target in one test is KRAS G12D (Homo sapiens, UniProt P01116, G12D). Put plainly: GDP-GTP exchange assay (bodipy-GDP/GppNHp, SOS1), KRAS G12D. In kind it is biochemical. The conditions noted are these: bodipy-loaded KRAS G12D 2.5 nM, 4 hours pre-incubation with inhibitor, 2 hours after GppNHp/SOS1; read-out: G12D_exchange IC50. The procedure: (§1) The inhibitor potency of the exemplified compounds was determined in a fluorescence based guanine nucleotide exchange assay, which measures the exchange of bodipy-GDP (fluorescently labeled GDP) for GppNHp (Non-hydrolyzable GTP analog) to generate the active state of KRAS in the presence of SOS1 (guanine nucleotide exchange factor). Inhibitors were serially diluted in DMSO and a volume of 0.1 μL was transferred to the wells of a black low volume 384-well plate. 5 μL/well volume of bodipy-loaded KRAS G12D diluted to 2.5 nM in assay buffer (25 mM Hepes pH 7.5, 50 mM NaCl, 10 mM MgCl2 and 0.01% Brij-35) was added to the plate and pre-incubated with inhibitor for 4 hours at ambient temperature. Appropriate controls (enzyme with no inhibitor or with a G12D inhibitor) were included on the plate. The exchange was initiated by the addition of a 5 μL/well volume containing 1 mM GppNHp and 300 nM SOS1 in assay buffer. The 10 μL/well reaction concentration of the bodipy-loaded KRAS G12D, GppNHp, and SOS1 were 2.5 nM, 500 uM, and 150 nM, respectively. The reaction plates were incubated at ambient temperature for 2 hours, a time estimated for complete GDP-GTP exchange in the absence of inhibitor. For the KRAS G12V mutant, similar guanine nucleotide exchange assays were used with 2.5 nM as final concentration for the bodipy loaded KRAS proteins and 3 hours incubation after adding GppNHp-SOS1 mixture. A cyclic peptide described to selectively bind G12D mutant (Sakamoto et al., BBRC 484.3 (2017), 605-611) or internal compounds with confirmed binding were used as positive controls in the assay plates. Fluorescence intensities were measured on a PheraStar plate reader instrument (BMG Labtech) with excitation at 485 nm and emission at 520 nm.
(§2) Either GraphPad prism or Genedata Screener SmartFit was used to analyze the data. The IC50 values were derived by fitting the data to a four parameter logistic equation producing a sigmoidal dose-response curve with a variable Hill coefficient.
(§3) The symbol “†” indicates IC50≤100 nM, “††” indicates IC50>100 nM but ≤1 μM; and “†††” indicates IC50 is >1 μM but ≤5 μM, “††††” indicates IC50 is >5 μM but ≤10 μM. “NA” indicates IC50 not available.

The target of another test is KRAS G12V (Homo sapiens, UniProt P01116, G12V). Put plainly: GDP-GTP exchange assay (bodipy-GDP/GppNHp, SOS1), KRAS G12V. In kind it is biochemical. The conditions noted are these: bodipy-loaded KRAS G12V 2.5 nM, 3 hours incubation after adding GppNHp-SOS1; read-out: G12V_exchange IC50. How it is done: as §1, §2, §3
Chain of KRAS G12V (P01116 1-188 isoform P01116-2 G12V): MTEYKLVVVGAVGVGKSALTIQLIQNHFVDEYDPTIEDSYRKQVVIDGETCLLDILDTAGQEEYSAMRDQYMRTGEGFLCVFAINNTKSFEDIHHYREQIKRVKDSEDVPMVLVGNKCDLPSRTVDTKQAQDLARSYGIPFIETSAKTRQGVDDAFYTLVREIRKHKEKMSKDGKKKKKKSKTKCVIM

Chain of KRAS G12D (P01116 1-188 isoform P01116-2 G12D): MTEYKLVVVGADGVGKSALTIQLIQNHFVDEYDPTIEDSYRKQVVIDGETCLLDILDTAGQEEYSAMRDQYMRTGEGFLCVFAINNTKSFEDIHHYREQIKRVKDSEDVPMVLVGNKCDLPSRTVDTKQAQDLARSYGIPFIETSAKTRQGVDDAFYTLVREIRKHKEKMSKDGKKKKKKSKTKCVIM

What is called IC50 is the midpoint of a concentration-inhibition curve. With `CN(C)C(=O)CCc1nc2c(N3CC(N(C)C)C3)nc3c(-c4cccc(C#N)c4)c(-c4cc(O)cc5ccccc45)c(CCC#N)cc3c2n1[C@@H]1[C@@H]2CN[C@H]1C2` (relative stereo) [Example 12, 3-(1-((endo)-2-azabicyclo[2.1.1]hexan-5-yl)-8-(2-cyanoethyl)-6-(3-cyanophenyl)-4-(3-(dimethylamino)azetidin-1-yl)-7-(3-hydroxynaphthalen-1-yl)-1H-imidazo[4,5-c]quinolin-2-yl)-N,N-dimethylpropanamide], the IC50 fell in the range of 100 to 1000 nM on KRAS G12D and 5000 to 10000 nM at KRAS G12V. `CCc1nc2c(-c3ccc(C(=O)NC)nc3)nc3c(F)c(-c4cc(O)cc5ccccc45)c(CCC#N)cc3c2n1C1C2CNC1C2` (single isomer, unassigned) [Example 19a, 5-(1-((endo)-2-Azabicyclo[2.1.1]hexan-5-yl)-8-(2-cyanoethyl)-2-ethyl-6-fluoro-7-(3-hydroxynaphthalen-1-yl)-1H-imidazo[4,5-c]quinolin-4-yl)-N-methylpicolinamide]: the IC50 at KRAS G12D and on KRAS G12V was at most 100 nM each time. Turning to `CN(C)C1CN(c2nc3c(F)c(-c4cc(O)cc5ccccc45)c(CCC#N)cc3c3c2nc(CCC(=O)N2CC4(CCOCC4)C2)n3C2C3CNC2C3)C1` (single isomer, unassigned) [Example 3a, 3-(1-((endo)-2-azabicyclo[2.1.1]hexan-5-yl)-4-(3-(dimethylamino)azetidin-1-yl)-6-fluoro-7-(3-hydroxynaphthalen-1-yl)-2-(3-oxo-3-(7-oxa-2-azaspiro[3.5]nonan-2-yl)propyl)-1H-imidazo[4,5-c]quinolin-8-yl)propanenitrile], the IC50 on KRAS G12D and at KRAS G12V was at most 100 nM throughout. As for `CN(C)C(=O)CCc1nc2c(N3CC(N(C)C)C3)nc3c(OCc4ccccc4)c(-c4cccc5ccc(F)cc45)c(CCC#N)cc3c2n1[C@@H]1[C@@H]2CN[C@H]1C2` (relative stereo) [Example 14, 3-(6-(benzyloxy)-1-((endo)-2-azabicyclo[2.1.1]hexan-5-yl)-8-(2-cyanoethyl)-4-(3-(dimethylamino)azetidin-1-yl)-7-(7-fluoronaphthalen-1-yl)-1H-imidazo[4,5-c]quinolin-2-yl)-N,N-dimethylpropanamide], the results for the IC50 at KRAS G12D and on KRAS G12V were 100 to 1000 nM and 5000 to 10000 nM, respectively. Take `CCc1nc2c(C)nc3c(F)c(-c4cc(O)cc5ccccc45)c(CCC#N)cc3c2n1C1C2CNC1C2` (single isomer, unassigned) [Example 23a, 3-(1-((endo)-2-Azabicyclo[2.1.1]hexan-5-yl)-2-ethyl-6-fluoro-7-(3-hydroxynaphthalen-1-yl)-4-methyl-1H-imidazo[4,5-c]quinolin-8-yl)propanenitrile]: the IC50 on KRAS G12D and on KRAS G12V was at most 100 nM in each case.

In the case of `CCc1nc2c(-c3ccc(=O)n(CC)c3)nc3c(F)c(-c4cc(O)cc5ccccc45)c(CCC#N)cc3c2n1C1C2CNC1C2` (single isomer, unassigned) [Example 18, 3-(1-((endo)-2-Azabicyclo[2.1.1]hexan-5-yl)-2-ethyl-4-(1-ethyl-6-oxo-1,6-dihydropyridin-3-yl)-6-fluoro-7-(3-hydroxynaphthalen-1-yl)-1H-imidazo[4,5-c]quinolin-8-yl)propanenitrile], the IC50 at KRAS G12D and on KRAS G12V was at most 100 nM throughout. Regarding `CN(C)C1CN(c2nc3c(F)c(-c4cc(O)cc5ccccc45)c(CCC#N)cc3c3c2nc(CCc2ncccn2)n3C2C3CNC2C3)C1` (single isomer, unassigned) [Example 37, 3-(1-((endo)-2-azabicyclo[2.1.1]hexan-5-yl)-4-(3-(dimethylamino)azetidin-1-yl)-6-fluoro-7-(3-hydroxynaphthalen-1-yl)-2-(2-(pyrimidin-2-yl)ethyl)-1H-imidazo[4,5-c]quinolin-8-yl)propanenitrile], the IC50 on KRAS G12D and at KRAS G12V was at most 100 nM throughout. Regarding `CCc1nc2c(N3CC(N(C)C)C3)nc3c(F)c(-c4cc(O)cc5ccccc45)c(C(CC#N)n4cc(CO)cn4)cc3c2n1C1C2CNC1C2` (single isomer, unassigned) [Example 8b, 3-(1-((endo)-2-azabicyclo[2.1.1]hexan-5-yl)-4-(3-(dimethylamino)azetidin-1-yl)-2-ethyl-6-fluoro-7-(3-hydroxynaphthalen-1-yl)-1H-imidazo[4,5-c]quinolin-8-yl)-3-(4-(hydroxymethyl)-1H-pyrazol-1-yl)propanenitrile], the values for the IC50 at KRAS G12D and on KRAS G12V were at most 100 nM and 100 to 1000 nM, respectively. Take `CN(C)C(=O)CCc1nc2c(N3CC(N(C)C)C3)nc3c(F)c(-c4cc(O)cc5ccccc45)cc(CN4CCC(C#N)C4)c3c2n1C1C2CNC1C2` (stereo not drawn) [Example 16, 3-(1-((endo)2-azabicyclo[2.1.1]hexan-5-yl)-9-((3-cyanopyrrolidin-1-yl)methyl)-4-(3-(dimethylamino)azetidin-1-yl)-6-fluoro-7-(3-hydroxynaphthalen-1-yl)-1H-imidazo[4,5-c]quinolin-2-yl)-N,N-dimethylpropanamide]: the IC50 at KRAS G12D was in the range of 100 to 1000 nM; on KRAS G12V it was 5000 to 10000 nM. As for `CCc1nc2c(-c3ncco3)nc3c(F)c(-c4cc(O)cc5ccccc45)c(CCC#N)cc3c2n1C1C2CNC1C2` (single isomer, unassigned) [Example 20a, 3-(1-((endo)-2-Azabicyclo[2.1.1]hexan-5-yl)-2-ethyl-6-fluoro-7-(3-hydroxynaphthalen-1-yl)-4-(oxazol-2-yl)-1H-imidazo[4,5-c]quinolin-8-yl)propanenitrile], the IC50 at KRAS G12D was at most 100 nM; on KRAS G12V, 100 to 1000 nM.

Regarding `C[C@H](Oc1nc2c(F)c(-c3cccc4cccc(C#N)c34)c(Cl)cc2c2c1ncn2[C@H]1CCN(C(N)=O)[C@H](CC#N)C1)[C@@H]1CCCN1C` [Example 42, (2S,4S)-4-(8-chloro-7-(8-cyanonaphthalen-1-yl)-6-fluoro-4-((S)-1-((S)-1-methylpyrrolidin-2-yl)ethoxy)-1H-imidazo[4,5-c]quinolin-1-yl)-2-(cyanomethyl)piperidine-1-carboxamide], the IC50 on KRAS G12D and on KRAS G12V was at most 100 nM each time. With `CN(C)C1CN(c2nc3c(F)c(-c4cc(O)cc5ccccc45)c(CCC#N)cc3c3c2nc(CN2CCCC2=O)n3C2C3CNC2C3)C1` (single isomer, unassigned) [Example 5a, 3-(1-((endo)-2-azabicyclo[2.1.1]hexan-5-yl)-4-(3-(dimethylamino)azetidin-1-yl)-6-fluoro-7-(3-hydroxynaphthalen-1-yl)-2-((2-oxopyrrolidin-1-yl)methyl)-1H-imidazo[4,5-c]quinolin-8-yl)propanenitrile], the IC50 at KRAS G12D and on KRAS G12V was at most 100 nM in each case. On to `CN(C)C(=O)CCc1nc2c(N3CC(N(C)C)C3)nc3c(F)c(-c4cc(O)cc5ccccc45)cc(CO)c3c2n1[C@@H]1[C@@H]2CN[C@H]1C2` (relative stereo) [Example 15, 3-(1-((endo)2-azabicyclo[2.1.1]hexan-5-yl)-4-(3-(dimethylamino)azetidin-1-yl)-6-fluoro-9-(hydroxymethyl)-7-(3-hydroxynaphthalen-1-yl)-1H-imidazo[4,5-c]quinolin-2-yl)-N,N-dimethylpropanamide], for which the IC50 on KRAS G12D was at most 100 nM; on KRAS G12V, 1000 to 5000 nM. Taken in the same sequence, the figures for `CCc1nc2c(OCC34CCCN3CC(F)C4)nc3c(F)c(-c4c[nH]c5ccc(F)cc45)c(CCC#N)cc3c2n1C1C2CNC1C2` (mixture of isomers) [Example 30, 3-(1-((endo)-2-azabicyclo[2.1.1]hexan-5-yl)-2-ethyl-6-fluoro-7-(5-fluoro-1H-indol-3-yl)-4-(((2R,7aS)-2-fluorotetrahydro-1H-pyrrolizin-7a(5H)-yl)methoxy)-1H-imidazo[4,5-c]quinolin-8-yl)propanenitrile] were at most 100 nM and 100 to 1000 nM. For `CC(=O)N1CCCC(c2nc3c(N4CC(N(C)C)C4)nc4c(F)c(-c5cc(O)cc6ccccc56)c(C)cc4c3n2C2C3CNC2C3)C1` (single isomer, unassigned) [Example 1a, 1-(3-(1-((endo)-2-azabicyclo[2.1.1]hexan-5-yl)-4-(3-(dimethylamino)azetidin-1-yl)-6-fluoro-7-(3-hydroxynaphthalen-1-yl)-8-methyl-1H-imidazo[4,5-c]quinolin-2-yl)piperidin-1-yl)ethan-1-one], at KRAS G12D, the IC50 lay within 100 to 1000 nM.
